# {CholTEG} = cholesterol attached through a triethylene glycol linker; {Sp18} = hexaethylene glycol (Sp18, PEG) spacer; {Sp9} = triethylene glycol (Sp9, TEG) spacer
# Experiments:
# human citrated plasma [1] = experiment: Prothrombin time (PT) assay in human citrated plasma; type: biochemical; settings: for increase in PT time: 2 uM, 2 h, versus untreated control; for impact of modified aptamer on PT: 2 uM modified aptamer, 1 hour room temperature plus 2-hour incubation, versus unmodified aptamer
# Protocol: (§1) Plasma was prepared by centrifugation for 10 min at 2000×g. In vitro activity assays were performed on ACLTOP analyzer manufactured by Instrumentation Laboratory, which is a type of coagulation analyzer commonly used in clinical laboratories to measure clotting times and assess coagulation parameters. The ACLTOP analyzer is designed to perform a wide range of coagulation tests, including Factor II activity, prothrombin time (PT), activated partial thromboplastin time (APTT), fibrinogen, and other related assays. ACLTOP analyzer uses HemosIL reagents developed by Instrumentation Laboratory company (Bedford, MA, USA) to perform coagulation tests.
# PT time was measured using RecombiPlasTin 2G for quantitative determination in human citrated plasma of PT and Fibrinogen on an ACLTOP coagulation analyzer manufactured by Instrumentation Laboratory (Bedford, MA, USA). To assess the activity of the aptamers in a dose-dependent manner in whole blood, human blood samples were collected in citrate-treated tubes. The blood samples were then incubated at room temperature for 2 h in the absence or presence of varying concentrations of the thrombin aptamers. To measure the Prothrombin Time (PT) on the ACLTOP coagulation analyzer, plasma was obtained by centrifuging the samples at 1500×g for 10 min at 4° C. For the dose dependence study, concentrations of 1 uM, 2 uM, 3 uM, and 4 uM of AYA1809002 and AYA1809004 were utilized.
# (§2) Modified aptamers chemically crosslinked with TAG, PEG, and cholesterol entities at the 3′ end, were purchased from IDT (Integrated DNA Technologies, Coralville, IA, USA). The impact of modified AYA1809002 and AYA1809004 aptamers on Factor II activity, PT, and APTT was evaluated using the same protocol as was used for the unmodified aptamers. Additionally, the potential for reversal was investigated using the respective reverse complement for each aptamer.
# [2] = biological target: T1, human alpha-thrombin protein (Homo sapiens, UniProt P00734); experiment: ELISA-based binding assay of biotinylated thrombin aptamers to thrombin protein; settings: top nine enriched aptamers, biotinylated; FIG. 2A
# T1 construct: Native human alpha-thrombin protein; purchased ThermoFisher Scientific RP-43100; host or cells: native protein
# Protocol: 135. Native human alpha-thrombin protein (ThermoFisher Scientific, cat #RP-43100, Waltham, MA, USA) was added to each well of a 96-well plate (Nunc MaxiSorp flat-bottom 96-well plates, ThermoFisher Scientific, cat #44-2404-21, Waltham, MA, USA) at a concentration of 250 nM in Tris-buffered saline with a volume of 100 μL per well. The plate was then incubated at 4° C. for 16 h to allow the wells to become coated with thrombin. After removing the thrombin solution, the wells were washed and blocked using blocking buffer (20 mM Tris, 150 mM NaCl pH 7.5, 2% BSA, 0.1% Tween 20 and 100 μg/mL of sheared salmon sperm DNA) for a 1 h duration. Next, biotinylated aptamers at the indicated concentrations in a volume of 100 μL were added to the wells in an incubation buffer (20 mM Tris, 150 mM NaCl pH 7.5, 0.1% BSA, 0.1% Tween 20 and 100 μg/mL of sheared salmon sperm DNA) and incubated for 1 h at room temperature. In the competition binding assay, unlabeled aptamers were added along with the biotinylated aptamers, with the unlabeled aptamers being present in a 100-fold excess compared to the biotinylated aptamers. Following three washing steps with wash buffer (20 mM Tris, 150 mM NaCl pH 7.5, 0.1% BSA and 0.1% Tween 20), streptavidin-HRP (ThermoFisher Scientific, cat #21130, Waltham, MA, USA) was added at a dilution of 1:5000 in the incubation buffer. The plate was washed again three times to remove any unbound reagents. The bound biotinylated aptamers were then detected using 3,3′,5,5′-Tetramethylbenzidine (TMB) substrate (ThermoFisher Scientific, cat #34021, Waltham, MA, USA) following the manufacturer's instructions.
# Factor II activity = biological target: T2, Factor II activity (Homo sapiens, UniProt P00734); experiment: Factor II activity assay in human citrated plasma (ACLTOP analyzer); type: biochemical; settings: for reduction in Factor II activity: 2 uM, 2 h, normalized against untreated control; for impact of modified aptamer on Factor II activity: 2 uM modified aptamer, 1 hour room temperature plus 2-hour incubation, versus unmodified aptamer
# T2 construct: tissue Rockland Immunochemicals, Inc R214-0050; host or cells: human citrated plasma / whole blood
# Protocol: as §1
# Factor II activity was measured using human plasma immunodepleted of Factor II for the quantitative determination of Factor II activity in citrated plasma based on the prothrombin time (PT) assay, for which an ACLTOP coagulation analyzer manufactured by Instrumentation Laboratory (Bedford, MA, USA) was used. To evaluate the dose-dependent activity of the aptamers in whole blood, human blood samples were collected in citrate-treated tubes. Subsequently, the blood samples were incubated at room temperature for 2 h in both the absence and presence of various concentrations of thrombin aptamers. To measure the Factor II activity using the ACLTOP coagulation analyzer, plasma was separated from the cells by centrifugation at 1500×g for 10 min at 4° C. For the dose-dependent study, concentrations of 1 uM, 2 uM, 3 uM, and 4 uM of AYA1809002 and AYA1809004 were utilized.
# as §2
# human citrated plasma [3] = experiment: Activated partial thromboplastin time (APTT) assay in human citrated plasma; type: biochemical; settings: for increase in APTT time: 2 uM, 2 h, versus untreated control; for impact of modified aptamer on APTT: 2 uM modified aptamer, 1 hour room temperature plus 2-hour incubation, versus unmodified aptamer
# Protocol: as §1, with “137. Sterile human blood in sodium citrate was purchased from the Rockland Immuno- chemicals, Inc (cat #R214-0050, Pottstown, PA 19464, USA). Plasma” for “Plasma”
# 140. […] APTT time was measured using the synthetic phospholipid reagent SynthASIil for quantitative determination in human citrated plasma on an ACLTOP coagulation analyzer manufactured by Instrumentation Laboratory (Bed- ford, MA, USA).
# as §2, with “146. Modified” for “Modified”
# clot-bound thrombin = settings: in vivo studies, literature; cited from earlier work
# rat whole blood = experiment: Factor II activity, PT, APPT and TT in rat whole blood; type: biochemical
# [4] = requires refrigeration; cited from earlier work
# [5] = Table 3, existing solution; cited from earlier work
# [6] = in clinical trials; cited from earlier work
# [7] = biological target: thrombin over other serine proteases (Homo sapiens, UniProt P00734); settings: Table 3, existing solution; cited from earlier work
# [8] = Table 3, existing solution; cited from earlier work; remark: listed apart in the source
# AYA1809002 = experiment: Restoration of Factor II activity and PT time with reverse complement in whole blood; type: biochemical, human; settings: 1 uM AYA1809002 2 h room temperature in whole blood, then reverse complement; even at 1:1 ratio
# Protocol: 144. Citrated blood collected from a donor was incubated in the absence or presence of 1 uM AYA1809002 at room temperature. After 2 h incubation, the indicated concentration of the reverse complement strand was added to the citrated blood sample. After an additional incubation time of 2 h, plasma was obtained through centrifugation. Factor II activity was measured using human plasma immunodepleted of Factor II for the quantitative determination of Factor II activity in citrated plasma based on the prothrombin time (PT) assay, for which an ACLTOP coagulation analyzer manufactured by Instrumentation Laboratory (Bedford, MA, USA) was used. The PT time was measured using RecombiPlasTin 2G for quantitative determination in human citrated plasma of PT and Fibrinogen on an ACLTOP coagulation analyzer manufactured by Instrumentation Laboratory (Bedford, MA, USA).
# [9] = tested on: modified AYA1809002 and AYA1809004 aptamers; experiment: Reversal potential of reverse complement on modified aptamers in human citrated plasma; type: biochemical; settings: 5 μM reverse complement strand, additional 2-hour incubation
# Protocol: as §2, with “146. Modified” for “Modified”
substance,measurement,setting,value
"AYA1809007: ssDNA thrombin aptamer AGGGGCTCTAGGGTGGGTAGGATGGTGAGACCGCAGCGT (DNA, backbone and methylation of C not given here; further chemistry not fully specified)",increase in PT time,human citrated plasma [1],two-fold increases
same,binding to immobilized human thrombin (absorbance at 450 nm),[2],strong binding capabilities
same,reduction in Factor II activity,Factor II activity,more than 75%
same,increase in APTT time,human citrated plasma [3],three-fold increase
"HD1: first anti-thrombin DNA aptamer, 15-mer 5′-GGTTGGTGTGGTTGG-3′ binding exosite I (DNA, backbone not given here)",inhibition of clot-bound thrombin,clot-bound thrombin,> 80%
"PEG-modified AYA1809002: AYA1809002 sequence with /3Sp18/ at the 3′ end (DNA GCGGTGTTGCTGGGGTTGGGAGGTTGGAGGAAGCAATCGC; DNA, 3' {Sp18}, backbone and methylation of C not given here)",APPT in rat whole blood,rat whole blood; dose-dependent manner,extend
same,Factor II activity in rat whole blood,rat whole blood; dose-dependent manner,inhibit
same,PT in rat whole blood,rat whole blood; dose-dependent manner,extend
same,TT in rat whole blood,rat whole blood; dose-dependent manner,extend
"PEG-modified AYA1809004: AYA1809004 sequence with /3Sp18/ at the 3′ end (DNA TCGTCAAGGTACGGTTGGGGGGGTGGGTGTTGACGTTGAA; DNA, 3' {Sp18}, backbone and methylation of C not given here)",impact of modified aptamer on PT,human citrated plasma [1],slight increase
same,impact of modified aptamer on Factor II activity,Factor II activity,noticeable inhibition
same,impact of modified aptamer on APTT,human citrated plasma [3],slight increase
"TEG-modified AYA1809004: AYA1809004 sequence with /3Sp9/ at the 3′ end (DNA TCGTCAAGGTACGGTTGGGGGGGTGGGTGTTGACGTTGAA; DNA, 3' {Sp9}, backbone and methylation of C not given here)",impact of modified aptamer on PT,human citrated plasma [1],slight increase
same,impact of modified aptamer on Factor II activity,Factor II activity,noticeable inhibition
same,impact of modified aptamer on APTT,human citrated plasma [3],slight increase
"cholesterol-modified AYA1809004: AYA1809004 sequence with /3CholTEG/ at the 3′ end; Table 2 misprints the name (DNA TCGTCAAGGTACGGTTGGGGGGGTGGGTGTTGACGTTGAA; DNA, 3' {CholTEG}, backbone and methylation of C not given here)",impact of modified aptamer on PT,human citrated plasma [1],no significant impact
same,impact of modified aptamer on Factor II activity,Factor II activity,no significant impact
same,impact of modified aptamer on APTT,human citrated plasma [3],no significant impact
dabigatran,increase in PT time,human citrated plasma [1],two-fold increases
same,shelf life,[4],shelf life 36 months
same,Onset of Action: peak effect,[5],Peak effect 2-3 hours
same,life-threatening bleeding risks,[6],bleeding risks (′ 3.3%
same,selectivity,[7],~300-fold selectivity
same,reduction in Factor II activity,Factor II activity,80%
same,Half-life,[8],Half-life of 12-17 hours
same,Renal Clearance,[8],~80%
same,increase in APTT time,human citrated plasma [3],three-fold increase
heparin,inhibition of clot-bound thrombin,clot-bound thrombin,35%
"reverse complement of AYA1809002: aptamer antidote GCGATTGCTTCCTCCAACCTCCCAACCCCAGCAACACCGC (DNA, backbone and methylation of C not given here)",restoration of Factor II activity by reverse complement,AYA1809002,effectively restored
same,restoration of PT time by reverse complement,AYA1809002,effectively restored
same,neutralization of aptamer effects in rat whole blood,rat whole blood; reverse complement strand,neutralized the observed effects
same,"reversal of modified aptamers' effects on Factor II activity, PT and APTT",[9],effectively reverses the observed effects
"reverse complement of AYA1809004: aptamer antidote TTCAACGTCAACACCCACCCCCCCAACCGTACCTTGACGA (DNA, backbone and methylation of C not given here)","reversal of modified aptamers' effects on Factor II activity, PT and APTT",[9],effectively restored
